The text below walks through data of PubChem BioAssay (NCI).

“And” between values parts separate entries of the source, which are not always exact repeats. Equal entries are not always repeated.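 These data come from cells grown in 96-well plates and exposed to compound for 48 hours at five concentrations. GI50 is the concentration that inhibits growth by half. TGI: total growth inhibition.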 Bounds are passed on as bounds.

Experiment in all cases: inhibition of tumour cell growth, NCI panel, 48 h
For assay [1], the system named is SNB-75 CNS.
In assay [2] the test system is CCRF-CEM leukemia.
Assay [3] concerns K-562 leukemia.
Assay [4] has as its system EKVX NSCLC.
The test system of assay [5] is MDA-MB-435.
For assay [6], the system named is MCF7 breast.
The test system of assay [7] is MDA-N.
For assay [8], the system named is DU-145 prostate.
Assay [9] relates to MOLT-4 leukemia.
Assay [10] deals with SN12C renal.
In assay [11] the test system is NCI-H522 lung.
Assay [12] relates to A498 renal.

Regarding `CCN1CCC(O)(c2ccc(Oc3ccc(F)cc3)cc2)C(C(=O)c2ccc(Oc3ccc(F)cc3)cc2)C1` (stereo not drawn), the TGI in [1] is 30.3 µM; in [2], 28.1 µM; in assay [3], greater than 100 µM; in assay [4], 31.8 µM; in assay [5], 30.8 µM; in assay [6], 26 µM. Also, the TGI amounted to 30.6 µM in assay [7], 24.7 µM in [8], 41.3 µM in [9] and 27.5 µM in [10].
For `CS(=O)(=O)c1nc(-c2cc3c(c(S(C)(=O)=O)n2)CCCC3)cc2c1CCCCC2`, the TGI in assay [1], in [2], in assay [11], in assay [4], in [5] and in [7] was greater than 100 µM throughout. Further, the TGI in [8] and in assay [10] was greater than 100 µM each time.
On to `CCC1(N=[N+]=[N-])C(=O)c2ccccc2N(C)C1=O` (stereo not drawn), for which the TGI in assay [1], in [2], in assay [3], in [11], in [4] and in assay [12] was greater than 100 µM in each case. Moreover, the TGI in [9] and in assay [10] was greater than 100 µM throughout.
Regarding `CO/N=C(/C)c1cccc(Nc2nc3ccccc3c3[nH]c4ccccc4c23)c1`, the TGI in assay [1] is 18.6 µM; in assay [3], greater than 100 µM; in [11], 9.61 µM; in [5] it was 20.6 µM; in [6] it was 19.9 µM; in assay [7], 20.4 µM. Besides, the TGI in assay [8] stood at 25 µM; in [9], 27.2 µM; in [10] it was 25 µM.
As for `O=S(=O)(O)c1cc(N=Nc2c(O)ccc3ccccc23)ccc1/C=C/c1ccc(N=Nc2c(O)ccc3ccccc23)cc1S(=O)(=O)O`, the TGI in [1], in [3], in assay [11], in [4], in assay [5] and in assay [7] was greater than 100 µM throughout. Moreover, the TGI in assay [10] is greater than 100 µM.
Regarding `Cc1c2c3ccccc3nc-2n(C)c2ccccc12`, the TGI in [1] stood at 7.75 µM; in assay [2], 5.33 µM; in assay [3] it was 5.28 µM; in assay [4], 10.3 µM; in [5], 12.4 µM; in assay [6], 5.98 µM. In addition, the TGI stood at 14.5 µM in assay [7], 29.6 µM in assay [8], 2.01 µM in assay [9] and 6.97 µM in assay [10].
On to `O=CNNC(=O)Nc1cccc2ccccc12`, for which the TGI in assay [1], in [2], in assay [3], in assay [4], in [5] and in assay [6] was greater than 100 µM each time. The TGI in [8], in [9] and in [10] was greater than 100 µM in each case.
As for `CCOC(=O)c1[nH]c(Br)c(-c2ccc(OC)c(OC)c2)c1Br`, the TGI is 32.8 µM in [1]; 12.7 µM in assay [3]; 0.349 µM in assay [11]; 43.3 µM in assay [4]; 0.194 µM in assay [12]; 0.00973 µM in [5]. Moreover, the TGI was 17.2 µM in [6]; 4.65 µM and 18.3 µM in [8]; 8.59 µM in assay [9]; 49.4 µM in assay [10]. In addition, the GI50 in assay [11] is 0.0328 µM; in [4] it was 10.4 µM; in assay [5] it was 0.00279 µM; in assay [6], 0.338 µM; in [8], 0.0155 µM; in assay [10] it was 1.59 µM.
Regarding `CC1=NC2=Nc3nc(C)cc[n+]3CN2C=C1`, the TGI in assay [1] is greater than 100 µM; in [11] it was greater than 100 µM; in [4], 75.8 µM; in assay [12], greater than 100 µM; in assay [5], greater than 100 µM; in assay [6], greater than 100 µM. The TGI in [8] and in assay [10] was greater than 100 µM throughout.
For `CS(=O)(=O)OCCN(CCOS(C)(=O)=O)c1ccc(C=Nc2cccc(Cl)c2)cc1`, the TGI in assay [1] was greater than 31.1 µM; in assay [2] it was greater than 100 µM; in assay [3], greater than 100 µM; in assay [11], 2.84 µM; in [4], 46.6 µM; in assay [12], 13.8 µM. Also, the TGI in assay [5] is 30.3 µM; in assay [6], greater than 100 µM; in [8], greater than 100 µM; in [9] it was 1.31 µM; in assay [10], 27.8 µM.
In the case of `Cn1c2ccccc2c2c3c(c4c5ccccc5n(C)c4c21)C(=O)NC3=O`, the TGI is greater than 95.7 µM in assay [1]; greater than 100 µM in assay [2]; greater than 100 µM in assay [3]; greater than 86.7 µM in [11]; greater than 100 µM in assay [4]; greater than 44.2 µM in [12]. In addition, the TGI in assay [5], in assay [6], in assay [8], in assay [9] and in assay [10] was greater than 100 µM in each case.
As to `O=C(OC1C2OC(=O)c3cc(O)c(O)c(O)c3Oc3cc4c(c(O)c3O)-c3c(cc(O)c(O)c3O)C(=O)OCC3OC(O)C(OC(=O)c5cc(O)c(O)c(O)c5Oc5cc6c(c(O)c5O)-c5c(cc(O)c(O)c5O)C(=O)OC1C(COC6=O)OC2O)C(OC(=O)c1cc(O)c(O)c(O)c1)C3OC4=O)c1cc(O)c(O)c(O)c1` (stereo not drawn), the TGI in assay [2] is greater than 100 µM; in assay [3], 42.8 µM; in [4], 37.9 µM; in [5] it was 42.6 µM; in assay [6], greater than 100 µM; in assay [7] it was 46.6 µM. Further, the TGI in assay [8] is greater than 100 µM; in assay [9] it was 12.2 µM; in [10], greater than 100 µM.
Take `O=C1CC2CC3OC3[C@H]3c4cc5c(cc4C(=O)N1C23)OCO5` (stereo partly drawn): the TGI in assay [2], in [3], in assay [11], in assay [4], in assay [9] and in assay [10] was greater than 100 µM in each case.
For `O=C(N/N=C/c1cc(Cl)cc(Cl)c1[O-])c1ccccc1O.O=C(N/N=C/c1cc(Cl)cc(Cl)c1[O-])c1ccccc1O.[Co+2]`, the TGI in [1] worked out at 18.9 µM; in assay [11], 1.63 µM; in assay [4], 14.8 µM; in assay [9], 15.7 µM. Besides, the figures for the GI50 in assay [4] and in assay [9] were 1.02 µM and 0.23 µM, respectively.
